Measurements as given in US4618681A, “Aryl substituted 1H-4,5-dihydro-1,2,3-triazoles as anticonvulsants” (priority 1984, dated 1986).
“Also recorded” adds a separate entry of the source. Like-named read-outs stand apart in the source and are kept apart here.

How the values were obtained:
[1] = Phase I anticonvulsant screening (MES and scMet tests); conditions: for Anticonvulsant Activity Group Classification: Phase I screening, MES and scMet tests, mouse; for signs of neurological deficit: at 600 mg/kg (compound 7) and 300 mg/kg (compound 12); for anticonvulsant potency: in words
[2] = mice, i.p.
Method: (§1) All animals were allowed free access to both food (S/L Custom Lab Diet-7) and water, except when they were removed from their cages for the experimental procedure.
(§2) The drugs were administered either orally or intraperitoneally in a volume of 0.01 ml/g body weight in mice and 0.04 ml/10 g in rats. All tests were conducted at the previously determined time of peak drug effect.
(§3) The profile of anticonvulsant activity for each substance was established by five tests: one electrical and four chemical. The electrical test employed was the maximal electroshock seizure pattern test. […] Except for the sc Strych Test, these tests measure the ability of anticonvulsants to afford complete protection against threshold seizures induced by the subcutaneous injection of the CD97 of the convulsant agent.
(§4) All convulsants were administered subcutaneously into a loose fold of skin on the back of the neck in a volume of 0.01 ml/g body weight in mice; Metrazol was injected in a volume of 0.02 ml/10 g body weight in rats. The convulsant drugs were administered at the previously determined time of peak anticonvulsant action of the drug under study. […] Except for strychnine, absence of a five-second episode of clonic spasms (threshold seizure) was taken as protection. In the case of strychnine, complete abolition of the hindleg tonic extension was taken as protection.

[3] = format: in vivo; conditions: Phase V, mice, i.p.
Method: as §3, §4

[4] = Subcutaneous Metrazol Seizure Threshold Test (sc Met) in rats; format: in vivo, rats (male albino, Sprague Dawley); conditions: Rattus norvegicus, po, read-out: ED50 sc Met
Method: as §2, §3, §4

[5] = mice; for effectiveness by the sc Pic test: Phase V, i.p.
Method: as §3, §4

[6] = Phase V, mice, i.p.
Method: as §3, §4

[7] = mice
Method: as §1, §2, §3

[8] = in vivo; set-up: species or system mice
Method: (§5) The profile of toxicity for each test drug was established by the following procedures: firstly, the minimal neurotoxic dose (TD50) was determined by the rotorod procedure at the time of peak neurotoxic effect. When a normal mouse is placed on a knurled rod one inch in diameter rotating at a speed of six rpm it can maintain its equilibrium for long periods of time. Neurological deficit is indicated by inability of the mouse to maintain its equilibrium for one minute in each of three trials on this rotating rod. Neurological deficit in rats is indicated by ataxia, loss of placing response and muscle tone. […] These observations also provide preliminary information essential for the subsequent determination of the HD50 and LD50. The HD50 represents the median dose at which 50% of animals lose their righting reflex.

[9] = Subcutaneous Metrazol Seizure Threshold Test (sc Met) in mice; conditions: for effectiveness by the sc Met test: Phase V; for effectiveness by the sc Met test / ED50 sc Met / Time of Test / time of peak effect (TPE), sc Met: i.p.
Method: as §1, §2, §3, §4

[10] = Time of peak effect (TPE) over several tests in rats; conditions: p.o., Compound 9: toxicity, MES and sc Met tests
Method: as §2

[11] = Time of peak effect (TPE) over several tests in mice; conditions: i.p.
Method: as §2

[12] = in vivo; conditions: mice, i.p., 24 hour period
Method: as §5

[13] = animal or person; conditions: Mus musculus, sc, read-out: sc CD97 of bicuculline
Method: as §3, §4

[14] = Mus musculus, ip, read-out: ED50 sc Met
[15] = Mus musculus, po, read-out: ED50 scMet

## FC(F)(F)c1cccc(N2N=NCC2c2ccccc2Cl)c1 (stereo not shown) [Compound 1, 1-m-trifluoromethylphenyl-5-(o-chlorophenyl)-Δ^2-1,2,3-triazoline]
[1]
  Anticonvulsant Activity Group Classification: II (Class II compounds show anticonvulsant activity at doses greater than 100 mg/kg or show activity at 100 mg/kg which is not reinforced by similar activity at 300 mg/kg)

## FC(F)(F)c1ccc(N2N=NCC2c2ccccc2Cl)cc1 (stereo not shown) [Compound 2]
[1]
  Anticonvulsant Activity Group Classification: II (Class II compounds show anticonvulsant activity at doses greater than 100 mg/kg or show activity at 100 mg/kg which is not reinforced by similar activity at 300 mg/kg)

## CCc1ccc(N2N=NCC2c2ccccc2Cl)cc1 (stereo not shown) [Compound 3, 1-(p-Ethylphenyl)-5-(o-chlorophenyl)-Δ^2-1,2,3-triazoline]
[1]
  Anticonvulsant Activity Group Classification: II (Class II compounds show anticonvulsant activity at doses greater than 100 mg/kg or show activity at 100 mg/kg which is not reinforced by similar activity at 300 mg/kg)

## O=[N+]([O-])c1ccccc1C1CN=NN1c1cccc(Cl)c1 (stereo not shown) [Compound 4, 1-(m-Chlorophenyl)5-(o-nitrophenyl)-Δ^2-1,2,3-triazoline]
[1]
  Anticonvulsant Activity Group Classification: II (Class II compounds show anticonvulsant activity at doses greater than 100 mg/kg or show activity at 100 mg/kg which is not reinforced by similar activity at 300 mg/kg)

## O=[N+]([O-])c1cccc(N2N=NCC2c2ccc(Cl)cc2Cl)c1 (stereo not shown) [Compound 5, 1-(m-Nitrophenyl)-5-(2,4-dichlorophenyl)-Δ^2-1,2,3-triazoline]
[1]
  Anticonvulsant Activity Group Classification: II (Class II compounds show anticonvulsant activity at doses greater than 100 mg/kg or show activity at 100 mg/kg which is not reinforced by similar activity at 300 mg/kg)

## Clc1cccc(Cl)c1C1CN=NN1c1ccc(Br)cc1 (stereo not shown) [Compound 6, 1-(p-Bromophenyl)-5-(2,6-dichlorophenyl)-Δ^2-1,2,3-triazoline]
[1]
  Anticonvulsant Activity Group Classification: II (Class II compounds show anticonvulsant activity at doses greater than 100 mg/kg or show activity at 100 mg/kg which is not reinforced by similar activity at 300 mg/kg)

## c1ccc(N2N=NCC2c2ccncc2)cc1 (stereo not shown) [Compound 7, 1-(Phenyl)-5-(4-pyridyl)-Δ^2-1,2,3-triazoline]
[1]; 600 mg/kg
  protection: 100%
[1]
  Anticonvulsant Activity Group Classification: II (Class II compounds show anticonvulsant activity at doses greater than 100 mg/kg or show activity at 100 mg/kg which is not reinforced by similar activity at 300 mg/kg)
  signs of neurological deficit: without any signs of neurological deficit

## CCOC(=O)c1ccc(N2N=NCC2c2ccncc2)cc1 (stereo not shown) [Compound 8, 1-(p-Ethoxycarbonyl)-5-(4-pyridyl)-Δ^2-1,2,3-triazoline]
[1]
  Anticonvulsant Activity Group Classification: II (Class II compounds show anticonvulsant activity at doses greater than 100 mg/kg or show activity at 100 mg/kg which is not reinforced by similar activity at 300 mg/kg)

## Fc1ccc(N2N=NCC2c2ccncc2)cc1 (stereo not shown) [Compound 10, 1-(p-Fluorophenyl)-5-(4-pyridyl)Δ^2-1,2,3-triazoline]
[1]
  anticonvulsant potency: most potent

## Cc1ccc(N2N=NCC2c2ccncc2)cc1 (stereo not shown) [Compound 11, 1-(p-Methylphenyl)-5-(4-pyridyl)-Δ^2-1,2,3-triazoline]
[1]
  Anticonvulsant Activity Group Classification: II (Class II compounds show anticonvulsant activity at doses greater than 100 mg/kg or show activity at 100 mg/kg which is not reinforced by similar activity at 300 mg/kg)

## Clc1cccc(N2N=NCC2c2ccncc2)c1 (stereo not shown) [Compound 12, 1-(m-chlorophenyl)-5-(4-pyridyl)-Δ^2-1,2,3-triazoline]
[1]; 300 mg/kg
  protection: 100%
[1]
  Anticonvulsant Activity Group Classification: II (Class II compounds show anticonvulsant activity at doses greater than 100 mg/kg or show activity at 100 mg/kg which is not reinforced by similar activity at 300 mg/kg)
  signs of neurological deficit: without any signs of neurological deficit

## c1ccc(N2N=NCC2c2ccccn2)cc1 (stereo not shown) [Compound 13, 1-(phenyl)-5-(2-pyridyl)-Δ^2-1,2,3-triazoline]
[1]
  Anticonvulsant Activity Group Classification: II (Class II compounds show anticonvulsant activity at doses greater than 100 mg/kg or show activity at 100 mg/kg which is not reinforced by similar activity at 300 mg/kg)

## Clc1ccc(N2N=NCC2c2ccccn2)cc1 (stereo not shown) [Compound 14, 1-(p-Chlorophenyl)-5-(2-pyridyl)-Δ^2-1,2,3-triazoline]
[1]
  Anticonvulsant Activity Group Classification: II (Class II compounds show anticonvulsant activity at doses greater than 100 mg/kg or show activity at 100 mg/kg which is not reinforced by similar activity at 300 mg/kg)

## O=[N+]([O-])c1cccc(N2N=NCC2c2ccc3ccccc3n2)c1 (stereo not shown) [Compound 15, 1-(m-Nitrophenyl)-5-(2-quinolyl)-Δ^2-1,2,3-triazoline]
[1]
  Anticonvulsant Activity Group Classification: II (Class II compounds show anticonvulsant activity at doses greater than 100 mg/kg or show activity at 100 mg/kg which is not reinforced by similar activity at 300 mg/kg)

## FC(F)(F)c1ccc(N2N=NCC2c2ccncc2)cc1 (stereo not shown) [Compound 16, 1-(p-trifluoromethylphenyl)-5-(4-pyridyl)-Δ^2-1,2,3-triazoline]
[1]
  anticonvulsant potency: most potent

## FC(F)(F)c1cccc(N2N=NCC2c2ccncc2)c1 (stereo not shown) [Compound 17, 1-(m-trifluoromethylphenyl)-5-(4-pyridyl)-Δ^2-1,2,3-triazoline]
[1]
  anticonvulsant potency: most potent

## Fc1ccc(N2N=NCC2c2cccnc2)cc1Cl (stereo not shown) [Compound 18, 1-(m-chloro-p-fluorophenyl)-5-(3-pyridyl)-Δ ^2-1,2,3-triazoline]
[1]
  Anticonvulsant Activity Group Classification: II (Class II compounds show anticonvulsant activity at doses greater than 100 mg/kg or show activity at 100 mg/kg which is not reinforced by similar activity at 300 mg/kg)

## CCC1(C)CC(=O)NC1=O (stereo not shown) [Ethosuximide, ethosuximide]
[2]
  Time of Test / time of peak effect (TPE), sc Met: 1/2
[3]
  animals protected, sc Strych test: ≤ 62%
[4]; rats, p.o.
  ED50: 54 mg/kg
[5]
  effectiveness by the sc Pic test: effective by the sc Met, sc Bic, and sc Pic tests
mouse, in vivo, ip
  Time of Test / time of peak effect (TPE), Rotorod: 1/2
mouse, in vivo, po
  TD50 (rotorod): 879.21 mg/kg
[6]
  effectiveness by the sc Bic test: had to be given in toxic doses to protect against sc Bic seizures
[7]; i.p.
  Time of Test / time of peak effect (TPE), MES: 1/2
[8]; mouse, in vivo, ip
  Slope, regression line, HD50 (righting reflex): 16.43
  Time of Test / time of peak toxicity, righting reflex: 1/2
[9]; mice
  effectiveness by the sc Met test: effective by the sc Met, sc Bic, and sc Pic tests
  ED50 sc Met: 130.35 mg/kg
[9]; mice, p.o.
  ED50 scMet: 192.71 mg/kg

## C1CCc2nnnn2CC1 [Metrazol, pentylenetetrazole]
[9]; Mus musculus, sc, read-out: sc CD97 of Metrazol
  ED97: 85 mg/kg

## CCC1(c2ccccc2)C(=O)NC(=O)NC1=O [Phenobarbital, phenobarbital]
[10]
  TPE: five
[3]
  effectiveness by the sc Strych test: had to be given in toxic doses in order to protect; also recorded: effective in toxic doses
[4]
  ED50: 11.6 mg/kg
[5]
  effectiveness by the sc Pic test: effective against sc Met, sc Bic, and sc Pic in nontoxic doses
[6]
  effectiveness by the sc Bic test: effective against sc Met, sc Bic, and sc Pic in nontoxic doses
[7]; i.p.
  ED50 MES: 21.78 mg/kg
  Time of Test / time of peak effect (TPE), MES: 1 h
[7]; p.o.
  ED50 MES: 20.09 mg/kg
[8]; mice, i.p.
  Slope, regression line, HD50 (righting reflex): 8.41
[9]; [14]
  ED50: 13.2 mg/kg
[9]; [15]
  ED50: 12.6 mg/kg
[9]; mice
  Time of Test / time of peak effect (TPE), sc Met: 1 h

## O=C1NC(=O)C(c2ccccc2)(c2ccccc2)N1 [Phenytoin, phenytoin]
[11]
  TPE by all tests: 2 h
[3]
  animals protected, sc Strych test: 50%
[5]
  effectiveness by the sc Pic test: ineffective against Metrazol, bicuculline, and picrotoxin
mice, i.p.
  Time of Test / time of peak effect (TPE), Rotorod: 2 h
[6]
  effectiveness by the sc Bic test: ineffective against Metrazol, bicuculline, and picrotoxin
[8]; mice, i.p.
  Slope, regression line, HD50 (righting reflex): 14.03
[8]; mouse, in vivo, ip
  Time of Test / time of peak toxicity, righting reflex: 12 h
[9]; mice
  effectiveness by the sc Met test: ineffective against Metrazol, bicuculline, and picrotoxin
[9]; mice, listed as phenytion
  ED50 sc Met: did not protect against subcutaneous Metrazol seizures

## CCCC(CCC)C(=O)O [Valproate, valproate]
[4]; rats, p.o.
  ED50: 180 mg/kg
[12]
  LD50 (lethality): 1104.62 mg/kg
[7]; i.p.
  Time of Test / time of peak effect (TPE), MES: 1/4
[8]; mice, i.p.
  HD50 (righting reflex): 885.53 mg/kg
  Slope, regression line, HD50 (righting reflex): 12.46
  Time of Test / time of peak toxicity, righting reflex: 1/4
[9]; [14]
  ED50: 149 mg/kg
[9]; [15]
  ED50: 388 mg/kg
[9]; mice
  Time of Test / time of peak effect (TPE), sc Met: 1/4

## CN1CCc2cc3c(cc2[C@H]1[C@@H]1OC(=O)c2c1ccc1c2OCO1)OCO3 [bicuculline]
[13]
  ED97: 2.7 mg/kg

## picrotoxin
[5]; subcutaneous
  sc CD97 of picrotoxin: 3.15 mg/kg
